Test results: PMC11429909, “Protein Structure Inspired Discovery of a Novel Inducer of Anoikis in Human Melanoma” (Cancers, 2024)

What was measured:
Type in all cases: cell-based, human
SK-MEL-5 cells [1] = test: Adherent versus floating cell quantification from images, SK-MEL-5; conditions: 20 µM, 3-day treatment, mean ± SEM (N = 4), controls 19.5 ± 3.2%
Description: After treatment of M14 and SK-MEL-5 cells with different concentrations of Dxr2-017 or vehicle for 3 or 8 days, as denoted, cell images were captured at 20X in a transmitted light channel using the EVOS™ M5000 Imaging System (Invitrogen (Waltham, MA, USA)). Western blots were performed as previously described by us. Briefly, cells were collected and lysed using RIPA lysis buffer (25 mM Tris-HCl pH 7.6, 150 mM NaCl, 1% NP-40, 1% sodium deoxycholate, and 0.1% SDS; Thermo Scientific^TM (Waltham, MA, USA), #89900), supplemented with protease and phosphatase inhibitor cocktail (Thermo Scientific^TM, #78442) and 1 mM of PMSF. […]
Figure 8 Dxr2-017 inhibits melanoma cell growth through induction of anoikis. […] Data are expressed as the percent of untreated control and are the mean ± SEM of three separate experiments. […] M14 and SK-MEL-5 cells were treated for eight days with 20 nM and 50 nM of Dxr2-017, respectively, and the phase of the cell cycle was determined by flow cytometry. […] (D) Adherent and floating cells were quantified from captured images. Data are the mean ± SEM (N = 4), expressed as a percentage to total cells. * Denotes p-value ≤ 0.05 compared to respective floating or attached cells. […]
We then assessed whether Dxr2-017 induced apoptosis. […]

SK-MEL-5 cells [2] = test: Cell cycle analysis by flow cytometry, SK-MEL-5; conditions: 50 nM, eight days
Description: A total of 1 × 10^4 M14 cells and 1 × 10^4 SK-MEL-5 cells were seeded into 10 cm culture dishes. Twenty-four hours later, cells were treated in replicates of N = 3, with Dxr2-017 at 20 nM for M14 and 50 nM for SK-MEL-5, or vehicle for controls for a total of eight days, with replacement of media, along with Dxr2-017 or vehicle, at day five. Cells were then collected, filtered to obtain single-cell suspensions, equal numbers of cells were fixed in 1 mL of 70% ethanol at 4 °C for 1 h, washed with PBS, and resuspended in 1 mL of Telford reagent (1 mM EDTA disodium salt, 2.5 U/mL RNAse A, 75 µM Propidium Iodide, and 0.1% Triton X-100 in PBS), and then incubated at 4 °C overnight. Cells were analyzed by flow cytometry (FACSCalibur analyzer, BD Biosciences). Cells were gated on forward scatter (FSC) versus side scatter (SCC) to remove debris, followed by gating of single cells using PI (FL2)-Area versus PI (FL2)-Width. Cell cycle analysis was performed on the PI (FL2)-Area parameter, and the percentages of cells within G0/G1, S, and G2/M phases were determined using Modfit LT 4.0.5.

NCI-60 cell lines = test: NCI-60 cell line screen; conditions: 48 h at 10 µM
Description: The above findings support the importance of Dxr2 and FolC2 sites, and of Dxr2-017 and FolC2-001 compounds, respectively. The NCI-60 cell line screen evaluates compound growth inhibition and cell toxicity in a highly standardized manner across 60 different cell lines. Dxr2-017 and FolC2-001 were evaluated in this assay (Figure S6). NCI-60 screens evaluate cells treated for 48 h at 10 µM with a given compound. […] Of high interest, in the NCI-60 screen, Dxr2-017 had relatively high activity against melanoma cell lines, inducing cell death in five cell lines ranging from 25% to 65%, and inhibiting growth in four cell lines ranging from 76% to 96%. Its impact on cell death represented the most striking relative difference in response across cell lines.

**Q.** For `c1ccc2sc(-c3ccc(CNc4ccc5nnnn5n4)o3)nc2c1` [Dxr2-017], which “floating cell population, percentage to total cells” value (SK-MEL-5 cells [1]) is on record?
**A.** 60.8 ± 10.4%

**Q.** And the “effect on cell cycle parameters” value (SK-MEL-5 cells [2])?
**A.** little-to-no change in cell cycle parameters

**Q.** What about the “activity in the NCI-60 screen (in words)” value (NCI-60 cell lines) of the same compound?
**A.** activity against HT29, MDA-MB-231, and H226
